# Assay results from patent publication US11427544B2, “Histone deacetylase 6 inhibitors and use thereof” (TAIPEI MEDICAL UNIVERSITY, priority 2016, dated 2022).
# Experiments:
# [1] = tested on: A549 lung cancer cell line; experiment: Antiproliferative activity, A549; format: cell-based, human; settings: Homo sapiens
# Method: (§1) A study was conducted to evaluate the inhibitory activity of compounds of Formula (I) in inhibiting HDAC6, antiproliferative activity of test compounds in suppressing cancer cell growth, and selectivity of inhibiting HDAC6 over other HDAC isoforms.
# (§2) The study was performed according to the protocol reported in Hsieh et al., Cell Death and Disease, 2014, April; 5:e1166.
# (§3) Shown in Table 2 below are antiproliferative activities (measured by their half maximal concentration for inhibiting cell growth, i.e., GI50) of the test compounds against various cancer cell lines.
# [2] = tested on: HL-60 Acute promyelocytic leukemia; experiment: Tumor growth inhibition, HL-60 xenograft; format: in vivo, athymic nude mice; settings: qd, intraperitoneal
# Method: An in vivo study was conducted to evaluate the efficacy of compounds of Formula (I) in suppressing tumor growth in multiple human cancer types.
# Eight-week-old athymic nude mice were group-housed under conditions of constant photoperiod (12 h light/12 h dark at 21-23° C. and 60-85% humidity) with ad libitum access to sterilized food and water. All animal experiments followed ethical standards, and protocols were reviewed and approved by the Animal Use and Management Committee of National Taiwan University. Each mouse was inoculated subcutaneously with 1×10^6˜1×10^7 human cancer cells in a total volume of 0.1 mL serum-free medium containing 50% Matrigel (BD Biosciences). As tumors became established (˜100 mm^3), mice were randomized to various groups to be treated with pre-determined materials (n=6-8/group): (i) control group: 0.5% DMSO/0.5% Cremophor/90% D5W and (ii) treatment groups: Compounds 12 and 28 at pre-determined doses daily. Mice received treatment by intraperitoneal injection for the duration of the study. Tumors were measured weekly using calipers. Tumor size, in mm^3, was calculated according to the formula: Tumor volume=(w^2×l)/2, where w and 1 respectively represent the width and length (both in mm) of the tumor.
# [3] = tested on: Caspase-3, Caspase-8, and Caspase-9 cleavage in RPMI8226 and NCI-H929; experiment: Cleavage of Caspase-3, -8 and -9 in multiple myeloma cells, combined with bortezomib; format: cell-based, human
# Method: A study was conducted to evaluate the effect of a compound of Formula (I) combined with bortezomib in increasing cleavage of Caspase-3, Caspase-8, and Caspase-9 in multiple myeloma cells.
# Cells (1×10^6) were incubated for 10 minutes at 4° C. in a lysis buffer solution in a culture vessel, and then scraped off the culture vessel, incubated on ice for another 10 minutes, and centrifuged at 17,000×g for 30 minutes at 4° C. Protein samples ([…]) were electrophoresed on SDS gels and transferred onto a nitrocellulose membrane, which was blocked by incubation with 5% fat-free milk in phosphate-buffered saline (PBS) for 30 minutes at room temperature. Immunoblotting was performed by overnight incubation at 4° C. with primary antibodies in PBS, followed by incubation for 1 hour at room temperature with horseradish peroxidase (HRP)-conjugated secondary antibodies, then bound antibodies were measured using enhanced chemiluminescence (ECL) reagent (Advansta Corp., Menlo Park, Calif., USA) and exposure to photographic film.
# The study was performed according to the protocol reported in Yang et al., Journal of Molecular Medicine, 2014, November; 92(11):1147-1158.
# [4] = tested on: MDA-MB-231 Breast cancer cell line; experiment: Antiproliferative activity, MDA-MB-231; format: cell-based, human; settings: Homo sapiens, MDA-MB-231, MDA-MB-231
# Method: as §1, §2, §3
# HDAC1 = biological target: T1, HDAC1 (Homo sapiens, UniProt Q13547); experiment: Fluorogenic HDAC assay, HDAC1; format: biochemical; settings: recombinant HDAC1; read-out: Enzyme IC50 HDAC1
# T1 construct: purchased BPS Bioscience Corp
# Source text: Of note, there are eighteen human HDACs. Eleven of them, designated as HDAC1-11, are zinc-dependent. Seven of them, designated as Sirt1-7, are NAD+-dependent.
# Fluorogenic HDAC assay kits were used to assess the ability of HDAC inhibitors to inhibit deacetylation of lysine residues on a substrate by recombinant proteins HDAC1, 3, 4, 5, 6, 7, 8, 9 and Sirt1 according to the manufacturer's instructions (BPS Bioscience Corp., San Diego, Calif., USA).
# [5] = tested on: PC-3 prostate cancer cell line; experiment: Antiproliferative activity, PC-3; format: cell-based, human; settings: Homo sapiens
# Method: as §1, §2, §3
# [6] = tested on: Aβ42 production in pCAX APP 695 plasmid-transfected Neuro 2a and SH—SYSY cells; experiment: Aβ42 production in cell culture supernatants; format: cell-based; settings: pCAX APP 695 transfected Neuro 2a and SH—SYSY cells; 0.1-10 μM, 24 hours
# Method: A study was conducted to evaluate the effect of compounds of Formula (I) in amyloid precursor protein (APP) levels and Aβ42 production.
# Moreover, neuro 2a or SH—SYSY cells (1×10^5) were transfected with pCAX APP 695 plasmid for 24 hours, followed by incubation with Compound 12 or Compound 28 (0.1-10 μM) for another 24 hours. Cell culture supernatants were assayed for Aβ42 production.
# [7] = tested on: T98 Glioblastoma cell line; experiment: Antiproliferative activity, T98; format: cell-based, human; settings: Homo sapiens, T98, T98
# Method: as §1, §2, §3
# T1 sequence (Q13547 whole entry): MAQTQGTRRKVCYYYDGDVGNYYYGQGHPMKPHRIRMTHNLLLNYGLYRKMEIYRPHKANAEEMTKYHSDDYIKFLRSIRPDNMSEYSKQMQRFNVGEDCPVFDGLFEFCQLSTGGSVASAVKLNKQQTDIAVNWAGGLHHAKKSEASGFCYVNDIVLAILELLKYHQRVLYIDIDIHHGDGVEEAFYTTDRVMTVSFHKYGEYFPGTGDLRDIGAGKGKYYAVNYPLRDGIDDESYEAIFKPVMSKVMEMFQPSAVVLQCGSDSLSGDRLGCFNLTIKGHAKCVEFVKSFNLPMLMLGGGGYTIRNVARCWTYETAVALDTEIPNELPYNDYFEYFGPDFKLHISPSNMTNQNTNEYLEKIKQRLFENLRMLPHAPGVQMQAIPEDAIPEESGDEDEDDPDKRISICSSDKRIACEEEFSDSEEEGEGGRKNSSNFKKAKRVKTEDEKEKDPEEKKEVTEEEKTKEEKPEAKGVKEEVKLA
compound,measurement,setting,value
"O=C(NO)c1ccc(CNc2cccc3cccnc23)cc1 [Compound 28, N-hydroxy-4-((quinolin-8-ylamino)methyl)benzamide]",GI50,[1],5.24 ± 0.18 µM
same,% TGI,[2]; 25 mg/kg,47.4%
same,% TGI,[2]; 50 mg/kg,61.1%
same,"cleavage of Caspase-3, Caspase-8, and Caspase-9",[3],"increased cleavage of Caspase-3, Caspase-8, and Caspase-9"
same,GI50,[4],1.89 ± 0.33 µM
same,IC50,HDAC1,6.7 µM
same,GI50,[5],3.4 ± 0.13 µM
same,Aβ42 production,[6],decreased Aβ42 production
same,GI50,[7],9.89 ± 0.92 µM
